Measured values taken from US9801833B2, “Compositions and methods using tiglic aldehyde” (NESTEC S.A., priority 2013, dated 2017).
Like-named read-outs stand apart in the source and are kept apart here.

Experiments:
[1] = molecular target: T1, TRPA1 (Homo sapiens, UniProt O75762); experiment: in vitro activation of TRPA1 in cells (FIG. 7); assay type: cell-based
T1 construct: expressed in transfected cells

[2] = molecular target: T2, TRPV1 (Homo sapiens, UniProt Q8NER1); experiment: in vitro activation of TRPV1 in cells (FIG. 7); assay type: cell-based; conditions: FIG. 7, triangles
T2 construct: expressed in transfected cells

[3] = molecular target: T3, TRPM8 (Homo sapiens, UniProt Q7Z2W7); experiment: in vitro activation of hTRPM8 in cells (FIG. 7); assay type: cell-based; conditions: FIG. 7, squares
T3 construct: expressed in transfected cells

[4] = tested on: "empty" cells; experiment: in vitro activation of "empty" cells (FIG. 7); assay type: cell-based
[5] = molecular target: T1, TRPA1; experiment: desensitization of TRPA1 by pretreatment fifteen minutes before cinnamaldehyde (FIGS. 8A, 8B); assay type: cell-based; conditions: applied to cells fifteen minutes before cinnamaldehyde
Method: (§1) Specifically, tiglic aldehyde was applied to cells fifteen minutes before cinnamaldehyde, icilin and capsaicin, which are specific agonists for TRPA1, TRPM8 and TRPV1 cation channels, respectively. After specific agonist application, the cation channel […] was measured. […] The left bars in each graph represent the controls lacking tiglic aldehyde pretreatment, the right bars in each graph represent the samples including tiglic aldehyde pretreatment.

[6] = molecular target: T2, TRPV1; experiment: desensitization of TRPV1 by pretreatment fifteen minutes before capsaicin (FIGS. 8A, 8B); assay type: cell-based; conditions: applied to cells fifteen minutes before capsaicin
Method: as §1

[7] = molecular target: T3, TRPM8; experiment: desensitization of TRPM8 by pretreatment fifteen minutes before icilin (FIGS. 8A, 8B); assay type: cell-based; conditions: applied to cells fifteen minutes before icilin
Method: as §1

[8] = From the text: Without wishing to be bound by theory, the present inventors believe that activation of TRPA1 is effective to 1) help to provoke the swallowing reflex of dysphagic patients, 2) decrease appetite by delaying gastric emptying, 3) reduce body weight gain, and 4) reduce glycemia by improving insulin sensitivity or glucose tolerance, 5) improve mood, memory or cognition. Tiglic aldehyde is described as having fresh, fruity, green, pulpy and almond nutty nuances (Fenaroli's Handbook of Flavor Ingredients, sixth edition), making it more pleasant compared to other TRPA1 agonists.
[9] = tested on: mice; experiment: body weight gain in mice with chronic ingestion (FIG. 3); assay type: in vivo; conditions: mice chronically fed high fat diet containing 0.2 wt %, vs same diet without
[10] = tested on: mice; experiment: insulin sensitivity in mice with chronic ingestion (FIG. 4); assay type: in vivo; conditions: mice chronically fed high fat diet containing 0.2 wt %, vs same diet without
[11] = tested on: mice; experiment: short term food intake after a single ingestion in mice (FIG. 5); assay type: in vivo; conditions: vs sham gavage
[12] = tested on: mice; experiment: gastric emptying after a single ingestion in mice (FIG. 6); assay type: in vivo; conditions: vs sham gavage
[13] = molecular target: T1, TRPA1; conditions: read-out: EC50 of TRPA1 activation; cited from earlier work
[14] = molecular target: T2, TRPV1; conditions: cited from earlier work
[15] = molecular target: T3, TRPM8; conditions: cited from earlier work

T1 sequence (O75762 whole entry, species assumed): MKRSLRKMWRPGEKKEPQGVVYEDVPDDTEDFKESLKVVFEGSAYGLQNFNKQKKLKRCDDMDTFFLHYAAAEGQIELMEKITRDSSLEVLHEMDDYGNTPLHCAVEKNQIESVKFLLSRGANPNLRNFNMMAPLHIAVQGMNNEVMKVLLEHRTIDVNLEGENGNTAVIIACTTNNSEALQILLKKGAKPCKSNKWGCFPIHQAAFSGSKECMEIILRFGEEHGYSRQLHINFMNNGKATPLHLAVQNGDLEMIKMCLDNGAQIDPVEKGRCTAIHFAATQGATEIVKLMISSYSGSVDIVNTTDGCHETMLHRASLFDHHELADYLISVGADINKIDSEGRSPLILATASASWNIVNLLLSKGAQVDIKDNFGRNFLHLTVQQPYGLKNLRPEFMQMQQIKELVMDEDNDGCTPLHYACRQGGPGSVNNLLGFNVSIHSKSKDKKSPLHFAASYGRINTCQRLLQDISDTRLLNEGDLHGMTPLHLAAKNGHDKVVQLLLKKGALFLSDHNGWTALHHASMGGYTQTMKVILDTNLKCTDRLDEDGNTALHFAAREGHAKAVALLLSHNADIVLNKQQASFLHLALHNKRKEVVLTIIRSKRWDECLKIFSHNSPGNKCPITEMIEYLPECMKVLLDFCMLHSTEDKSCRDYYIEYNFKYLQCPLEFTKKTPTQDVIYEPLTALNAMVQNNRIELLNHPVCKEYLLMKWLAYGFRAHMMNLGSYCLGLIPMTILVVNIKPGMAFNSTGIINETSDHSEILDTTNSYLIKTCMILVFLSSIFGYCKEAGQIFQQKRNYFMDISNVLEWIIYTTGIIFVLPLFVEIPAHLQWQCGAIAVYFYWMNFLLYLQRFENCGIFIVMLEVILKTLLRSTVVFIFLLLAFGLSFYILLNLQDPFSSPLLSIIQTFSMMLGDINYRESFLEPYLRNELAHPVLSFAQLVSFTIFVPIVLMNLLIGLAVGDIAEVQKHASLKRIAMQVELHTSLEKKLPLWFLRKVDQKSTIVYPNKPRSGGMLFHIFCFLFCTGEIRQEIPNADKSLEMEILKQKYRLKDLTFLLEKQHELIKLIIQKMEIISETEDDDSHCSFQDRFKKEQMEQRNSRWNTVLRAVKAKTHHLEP
T2 sequence (Q8NER1 whole entry, species assumed): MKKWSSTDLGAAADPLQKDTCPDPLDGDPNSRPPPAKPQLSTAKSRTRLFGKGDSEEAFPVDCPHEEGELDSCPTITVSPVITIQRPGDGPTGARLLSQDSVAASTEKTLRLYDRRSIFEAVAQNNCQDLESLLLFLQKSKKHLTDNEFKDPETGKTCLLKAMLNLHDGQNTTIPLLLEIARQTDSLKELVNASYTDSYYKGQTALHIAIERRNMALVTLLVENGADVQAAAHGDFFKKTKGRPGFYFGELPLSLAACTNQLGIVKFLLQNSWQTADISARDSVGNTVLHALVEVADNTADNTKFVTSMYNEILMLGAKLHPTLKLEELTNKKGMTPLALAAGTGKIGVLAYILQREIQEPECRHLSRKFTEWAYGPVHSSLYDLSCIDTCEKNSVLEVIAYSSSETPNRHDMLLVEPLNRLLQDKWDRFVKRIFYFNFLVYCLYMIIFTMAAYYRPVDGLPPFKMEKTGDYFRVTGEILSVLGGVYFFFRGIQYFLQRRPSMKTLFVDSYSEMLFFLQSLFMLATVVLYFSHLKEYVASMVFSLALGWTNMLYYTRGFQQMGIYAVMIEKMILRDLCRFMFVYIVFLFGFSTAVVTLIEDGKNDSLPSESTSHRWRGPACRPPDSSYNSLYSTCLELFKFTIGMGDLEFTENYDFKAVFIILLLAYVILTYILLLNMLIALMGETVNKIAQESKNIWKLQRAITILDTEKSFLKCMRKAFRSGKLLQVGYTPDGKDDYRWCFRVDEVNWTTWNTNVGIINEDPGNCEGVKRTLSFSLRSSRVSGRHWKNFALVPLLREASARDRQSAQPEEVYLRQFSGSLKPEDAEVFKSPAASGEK
T3 sequence (Q7Z2W7 whole entry): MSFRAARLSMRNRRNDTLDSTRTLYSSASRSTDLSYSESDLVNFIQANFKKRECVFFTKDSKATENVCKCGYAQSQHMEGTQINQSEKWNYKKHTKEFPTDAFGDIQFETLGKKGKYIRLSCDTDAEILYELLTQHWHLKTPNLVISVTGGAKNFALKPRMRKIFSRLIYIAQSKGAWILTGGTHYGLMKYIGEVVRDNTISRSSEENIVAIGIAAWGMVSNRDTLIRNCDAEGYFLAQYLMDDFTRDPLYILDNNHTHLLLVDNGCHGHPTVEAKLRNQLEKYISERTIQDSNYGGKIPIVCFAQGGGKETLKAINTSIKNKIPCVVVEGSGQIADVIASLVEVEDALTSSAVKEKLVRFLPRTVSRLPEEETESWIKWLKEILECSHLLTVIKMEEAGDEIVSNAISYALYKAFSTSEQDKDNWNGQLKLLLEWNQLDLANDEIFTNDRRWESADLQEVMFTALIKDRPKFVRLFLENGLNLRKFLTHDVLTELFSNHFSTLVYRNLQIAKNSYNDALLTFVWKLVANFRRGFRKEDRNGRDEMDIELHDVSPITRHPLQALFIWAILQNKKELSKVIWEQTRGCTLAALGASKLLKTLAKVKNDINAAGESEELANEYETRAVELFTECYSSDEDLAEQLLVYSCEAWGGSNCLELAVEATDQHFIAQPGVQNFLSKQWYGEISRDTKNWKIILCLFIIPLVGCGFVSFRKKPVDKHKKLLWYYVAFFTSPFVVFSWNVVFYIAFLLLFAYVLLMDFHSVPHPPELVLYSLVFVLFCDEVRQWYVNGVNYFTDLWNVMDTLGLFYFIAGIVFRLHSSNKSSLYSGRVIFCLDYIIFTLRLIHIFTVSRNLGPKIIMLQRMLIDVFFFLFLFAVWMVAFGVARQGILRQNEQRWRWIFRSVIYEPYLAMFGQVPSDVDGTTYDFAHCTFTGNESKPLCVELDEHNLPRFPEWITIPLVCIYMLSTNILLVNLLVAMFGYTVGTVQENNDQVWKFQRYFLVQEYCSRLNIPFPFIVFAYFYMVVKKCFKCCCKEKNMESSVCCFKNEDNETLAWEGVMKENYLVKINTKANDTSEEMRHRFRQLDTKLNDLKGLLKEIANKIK

Structure (SMILES)	activation of TRPA1 ([1]; FIG. 7, diamonds)	efficacy of TRPA1 activation relative to cinnamaldehyde ([1]; relative to known TRPA1 agonist cinnamaldehyde)	activation of TRPV1 [2]	activation of hTRPM8 [3]	activation of "empty" cells [4]	desensitization of TRPA1 [5]	desensitization of TRPV1 [6]	desensitization of TRPM8 [7]	irritancy [8]	body weight gain [9]	insulin sensitivity [10]	short term food intake [11]	gastric emptying [12]	EC50 [13]	activation of TRPV1 [14]	activation of TRPM8 [15]
C/C=C(\C)C=O [tiglic aldehyde]	activated TRPA1 (diamonds) in a dose-dependent fashion	120%	no activation was observed	no activation was observed	no activation was observed	does not desensitize	does not desensitize	does not desensitize	not an irritant	–	–	–	–	–	–	–
O=CC=Cc1ccccc1 [cinnamaldehyde]	–	–	–	–	–	–	–	–	–	gained less weight	improved insulin sensitivity	reduction in short term food intake	delayed gastric emptying	~60 µM	not	not
